Laboratory results from ChEMBL document CHEMBL5360666, “Inhibition Profiles of Some Novel Sulfonamide-Incorporated α-Aminophosphonates on Human Carbonic Anhydrases” (ACS Med Chem Lett, 2023).

Tests used:
Carbonic anhydrase 1 = Carbonic anhydrase 1 (Homo sapiens, UniProt P00915); experiment: Inhibition of human carbonic anhydrase 1 assessed as inhibition constant incubated for 1 hr prior to testing by phenol red based stopped-flow CO2 hydration assay
Carbonic anhydrase 12 = Carbonic anhydrase 12 (Homo sapiens, UniProt O43570); experiment: Inhibition of human carbonic anhydrase 12 assessed as inhibition constant incubated for 1 hr prior to testing by phenol red based stopped-flow CO2 hydration assay
Carbonic anhydrase 9 = Carbonic anhydrase 9 (Homo sapiens, UniProt Q16790); experiment: Inhibition of human carbonic anhydrase 9 assessed as inhibition constant incubated for 1 hr prior to testing by phenol red based stopped-flow CO2 hydration assay

Carbonic anhydrase 12, sequence (O43570 whole entry): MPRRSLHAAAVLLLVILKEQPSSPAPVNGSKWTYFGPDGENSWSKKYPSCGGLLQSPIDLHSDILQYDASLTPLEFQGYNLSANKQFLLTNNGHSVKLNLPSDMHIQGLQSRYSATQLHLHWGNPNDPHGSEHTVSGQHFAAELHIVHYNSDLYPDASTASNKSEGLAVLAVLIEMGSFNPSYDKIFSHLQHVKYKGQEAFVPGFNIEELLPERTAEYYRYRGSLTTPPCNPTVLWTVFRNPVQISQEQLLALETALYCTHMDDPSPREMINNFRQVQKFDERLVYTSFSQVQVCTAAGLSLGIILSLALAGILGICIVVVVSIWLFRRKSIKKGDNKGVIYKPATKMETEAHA
Carbonic anhydrase 1, sequence (P00915 whole entry): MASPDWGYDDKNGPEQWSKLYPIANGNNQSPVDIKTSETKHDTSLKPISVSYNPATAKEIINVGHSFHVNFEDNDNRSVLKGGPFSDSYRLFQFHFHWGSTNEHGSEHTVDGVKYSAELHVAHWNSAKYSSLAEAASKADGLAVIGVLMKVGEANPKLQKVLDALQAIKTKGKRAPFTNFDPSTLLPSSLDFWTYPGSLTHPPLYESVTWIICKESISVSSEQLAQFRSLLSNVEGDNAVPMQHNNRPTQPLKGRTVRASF

| Compound | Ki (Carbonic anhydrase 1) | Ki (Carbonic anhydrase 12) | Ki (Carbonic anhydrase 9) |
| --- | --- | --- | --- |
| COc1ccc(CNc2ccc(S(N)(=O)=O)cc2)cc1 | > 50000 nM | 11.2 nM | 883 nM |
| CCOP(=O)(OCC)C(Nc1ccc(S(N)(=O)=O)cc1)c1ccc(F)cc1 (stereo not drawn) | – | – | 91.6 nM |
| CCOP(=O)(OCC)C(Nc1ccc(S(N)(=O)=O)cc1)c1ccc(Cl)cc1 (stereo not drawn) | – | – | 142 nM |
| CCOP(=O)(OCC)C(Nc1ccc(S(N)(=O)=O)cc1)c1cccc(F)c1 (stereo not drawn) | – | – | 39.1 nM |
| CCOP(=O)(OCC)C(Nc1ccc(S(N)(=O)=O)cc1)c1ccc(SC)cc1 (stereo not drawn) | – | – | 80.2 nM |
| CCOP(=O)(OCC)C(Nc1ccc(S(N)(=O)=O)cc1)c1ccc(OC)c(OC)c1 (stereo not drawn) | – | – | 118 nM |
| CCOP(=O)(OCC)C(Nc1ccc(S(N)(=O)=O)cc1)c1ccc(C)cc1 (stereo not drawn) | – | – | 147 nM |
| CCOP(=O)(OCC)C(Nc1ccc(S(N)(=O)=O)cc1)c1c(Br)cccc1OC (stereo not drawn) | – | – | 346 nM |
| CCOP(=O)(OCC)C(Nc1ccc(S(N)(=O)=O)cc1)c1ccc(Br)cc1 (stereo not drawn) | – | – | 154 nM |
| CCOP(=O)(OCC)C(Nc1ccc(S(N)(=O)=O)cc1)c1cc(OC)c(OC)cc1OC (stereo not drawn) | – | – | 249 nM |
| CCOP(=O)(OCC)C(Nc1ccc(S(N)(=O)=O)cc1)c1cc(OC)ccc1OC (stereo not drawn) | – | – | 470 nM |
| CCOP(=O)(OCC)C(Nc1ccc(S(N)(=O)=O)cc1)c1ccc(-c2ccccc2)cc1 (stereo not drawn) | – | – | 225 nM |
| CCOP(=O)(OCC)C(Nc1ccc(S(N)(=O)=O)cc1)c1ccccc1F (stereo not drawn) | – | – | 26.7 nM |
| CCOP(=O)(OCC)C(Nc1ccc(S(N)(=O)=O)cc1)c1ccc(OC)cc1 (stereo not drawn) | – | – | 140 nM |
| CCOP(=O)(OCC)C(Nc1ccc(S(N)(=O)=O)cc1)c1cccc(Br)c1 (stereo not drawn) | – | – | 61.3 nM |
| CCOP(=O)(OCC)C(Nc1ccc(S(N)(=O)=O)cc1)c1ccccc1[N+](=O)[O-] (stereo not drawn) | – | – | 293 nM |
